Results reported in PubChem BioAssay AID256 (DTP/NCI, 2004).
Inconclusive results and toxic doses are left out. Rule for the calls: active = survival T/C of 150% or more; inactive = T/C below 125% in these data.

Tested on: CD2F1 mice, L1210 leukemia ip, survival T/C
Assay: NCI In Vivo Anticancer Drug Screen. Data for tumor model L1210 Leukemia (intraperitoneal) in CD2F1 (CDF1) mice
Conditions: higher = longer survival
In short: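 Antitumor effect is scored in animals hosting a serially transplanted tumor. Values compare compound-dosed animals against vehicle-only controls as a simple quotient.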

[1] = endpoint: mean survival time, dose: 100.0 mg/kg/injection, schedule: Q04DX003 (ip), vehicle: saline with Tween-80
[2] = endpoint: mean survival time, dose: 200.0 mg/kg/injection, schedule: Q04DX003 (ip), vehicle: saline with Tween-80
[3] = endpoint: mean survival time, dose: 400.0 mg/kg/injection, schedule: Q04DX003 (ip), vehicle: saline with Tween-80
[4] = endpoint: mean survival time, dose: 100.0 mg/kg/injection, schedule: Q01DX009 (ip), vehicle: saline with Tween-80
[5] = endpoint: mean survival time, dose: 200.0 mg/kg/injection, schedule: Q01DX009 (ip), vehicle: saline with Tween-80
[6] = endpoint: mean survival time, dose: 100.0 mg/kg/injection, schedule: Q01DX009 (ip), vehicle: saline
[7] = endpoint: mean survival time, dose: 200.0 mg/kg/injection, schedule: Q01DX009 (ip), vehicle: saline
[8] = endpoint: mean survival time, dose: 400.0 mg/kg/injection, schedule: Q01DX009 (ip), vehicle: saline

Measured: T/C

Cn1c(=O)c2[nH]c(-c3ccc4c(c3)OCO4)nc2n(C)c1=O
inactive: [1] 89 % of control | [2] 92 % of control | [3] 88 % of control

CC/C(=C/c1ccc(OC)cc1)[N+](=O)[O-]
inactive: endpoint: mean survival time, dose: 12.5 mg/kg/injection, schedule: Q01DX009 (ip), vehicle: Klucel (hydroxypropylcellulose) (HPC) 113 % of control | endpoint: mean survival time, dose: 25.0 mg/kg/injection, schedule: Q01DX009 (ip), vehicle: Klucel (hydroxypropylcellulose) (HPC) 102 % of control | endpoint: mean survival time, dose: 50.0 mg/kg/injection, schedule: Q01DX009 (ip), vehicle: Klucel (hydroxypropylcellulose) (HPC) 94 % of control

Oc1c(Cl)cc(Cl)cc1/C=N/NC(=S)Nc1cc(C(F)(F)F)cc(C(F)(F)F)c1
inactive: endpoint: mean survival time, dose: 6.25 mg/kg/injection, schedule: Q01DX009 (ip), vehicle: olive oil, sesame oil, peanut oil 102 % of control | endpoint: mean survival time, dose: 12.5 mg/kg/injection, schedule: Q01DX009 (ip), vehicle: olive oil, sesame oil, peanut oil 100 % of control | endpoint: mean survival time, dose: 25.0 mg/kg/injection, schedule: Q01DX009 (ip), vehicle: olive oil, sesame oil, peanut oil 100 % of control | endpoint: mean survival time, dose: 50.0 mg/kg/injection, schedule: Q01DX009 (ip), vehicle: olive oil, sesame oil, peanut oil 102 % of control | endpoint: mean survival time, dose: 100.0 mg/kg/injection, schedule: Q01DX009 (ip), vehicle: olive oil, sesame oil, peanut oil 102 % of control | endpoint: mean survival time, dose: 200.0 mg/kg/injection, schedule: Q01DX009 (ip), vehicle: olive oil, sesame oil, peanut oil 94 % of control

CCC(/C=C/C(C)C1CCC2C3CC=C4CC(O)CCC4(C)C3CCC12C)C(C)C (stereo unspecified) (tested in a mixture with another compound)
inactive: endpoint: mean survival time, dose: 12.5 mg/kg/injection, schedule: Q01DX001 (ip), vehicle: water 97 % of control | endpoint: mean survival time, dose: 12.5 mg/kg/injection, schedule: Q01DX009 (ip), vehicle: water 100 % of control | endpoint: mean survival time, dose: 25.0 mg/kg/injection, schedule: Q01DX001 (ip), vehicle: water 97 % of control | endpoint: mean survival time, dose: 25.0 mg/kg/injection, schedule: Q01DX009 (ip), vehicle: other 94 % of control | endpoint: mean survival time, dose: 25.0 mg/kg/injection, schedule: Q01DX009 (ip), vehicle: water 103 % of control | endpoint: mean survival time, dose: 50.0 mg/kg/injection, schedule: Q01DX001 (ip), vehicle: water 102 % of control | endpoint: mean survival time, dose: 50.0 mg/kg/injection, schedule: Q01DX009 (ip), vehicle: other 91 % of control | endpoint: mean survival time, dose: 50.0 mg/kg/injection, schedule: Q01DX009 (ip), vehicle: water 96 % of control | [4] 94 % of control | [5] 89 % of control

Oc1ccc2ccccc2c1Cc1ccccc1
inactive: [1] 101 % of control | [2] 97 % of control | [3] 98 % of control

N#Cc1cn(C2OC(CO)C(O)C2O)c2ncn(N)c(=N)c12 (stereo unspecified)
inactive: endpoint: mean survival time, dose: 25.0 mg/kg/injection, schedule: Q01DX005 (ip), vehicle: water 110 % of control | endpoint: mean survival time, dose: 50.0 mg/kg/injection, schedule: Q01DX005 (ip), vehicle: water 111 % of control | endpoint: mean survival time, dose: 100.0 mg/kg/injection, schedule: Q01DX005 (ip), vehicle: water 118 % of control

CN(C)CCNC(=O)c1ccc(N)cc1
inactive: endpoint: mean survival time, dose: 100.0 mg/kg/injection, schedule: Q04DX002 (ip), vehicle: saline 102 % of control | endpoint: mean survival time, dose: 200.0 mg/kg/injection, schedule: Q04DX002 (ip), vehicle: saline 102 % of control

CC(=O)NC(CSC(c1ccccc1)(c1ccccc1)c1ccccc1)C(=O)O (stereo unspecified)
inactive: endpoint: mean survival time, dose: 25.0 mg/kg/injection, schedule: Q01DX009 (ip), vehicle: saline 101 % of control | endpoint: mean survival time, dose: 50.0 mg/kg/injection, schedule: Q01DX009 (ip), vehicle: saline 100 % of control | [6] 101 % of control

CCOC(=O)/C(C#N)=C1/C=CCCC1
inactive: endpoint: mean survival time, dose: 75.0 mg/kg/injection, schedule: Q01DX001 (ip), vehicle: saline 97 % of control | endpoint: mean survival time, dose: 150.0 mg/kg/injection, schedule: Q01DX001 (ip), vehicle: saline 104 % of control | endpoint: mean survival time, dose: 300.0 mg/kg/injection, schedule: Q01DX001 (ip), vehicle: saline 97 % of control

O=C1CCCc2ccc(Cl)cc21
inactive: endpoint: mean survival time, dose: 100.0 mg/kg/injection, schedule: Q04DX003 (ip), vehicle: saline 96 % of control | endpoint: mean survival time, dose: 200.0 mg/kg/injection, schedule: Q04DX003 (ip), vehicle: saline 97 % of control | endpoint: mean survival time, dose: 400.0 mg/kg/injection, schedule: Q04DX003 (ip), vehicle: saline 108 % of control

O=C(O)C1CCC=CC1c1ccccc1 (stereo unspecified)
inactive: endpoint: mean survival time, dose: 100.0 mg/kg/injection, schedule: Q04DX002 (ip), vehicle: saline with Tween-80 95 % of control | endpoint: mean survival time, dose: 200.0 mg/kg/injection, schedule: Q04DX002 (ip), vehicle: saline with Tween-80 102 % of control | endpoint: mean survival time, dose: 400.0 mg/kg/injection, schedule: Q04DX002 (ip), vehicle: saline with Tween-80 91 % of control

O=P(CCCCl)(OCCCCl)OCCCCl
inactive: [6] 100 % of control | [7] 101 % of control | [8] 100 % of control

CCOC(=O)CNC(=O)NC
inactive: [6] 100 % of control | [7] 98 % of control | [8] 100 % of control

CCCCCCCCC1SC1CCCCCCCC(=O)NCCOC(=O)CCCCCCCC1SC1CCCCCCCC (stereo unspecified)
inactive: [4] 92 % of control | [5] 95 % of control | endpoint: mean survival time, dose: 400.0 mg/kg/injection, schedule: Q01DX009 (ip), vehicle: saline with Tween-80 93 % of control

C[C@@]12C(=O)OC(=O)[C@]1(C)[C@H]1CC[C@@H]2O1
inactive: endpoint: median survival time, dose: 0.06 mg/kg/injection, schedule: Q01DX009 (ip), vehicle: Klucel (hydroxypropylcellulose) (HPC) 110 % of control | endpoint: median survival time, dose: 0.12 mg/kg/injection, schedule: Q01DX009 (ip), vehicle: Klucel (hydroxypropylcellulose) (HPC) 102 % of control | endpoint: median survival time, dose: 0.25 mg/kg/injection, schedule: Q01DX009 (ip), vehicle: Klucel (hydroxypropylcellulose) (HPC) 103 % of control | endpoint: median survival time, dose: 0.5 mg/kg/injection, schedule: Q01DX009 (ip), vehicle: Klucel (hydroxypropylcellulose) (HPC) 104 % of control | endpoint: median survival time, dose: 1.0 mg/kg/injection, schedule: Q01DX009 (ip), vehicle: Klucel (hydroxypropylcellulose) (HPC) 92 % of control

CC/C(C)=C1\OC(=O)C(C)C(O)C(Cc2cccnc2)NC(=O)C(NC(=O)c2ncccc2O)C(C)OC1=O (stereo unspecified)
inactive: endpoint: mean survival time, dose: 3.13 mg/kg/injection, schedule: Q01DX009 (ip), vehicle: saline with Tween-80 96 % of control | endpoint: mean survival time, dose: 6.25 mg/kg/injection, schedule: Q01DX009 (ip), vehicle: saline with Tween-80 95 % of control | endpoint: mean survival time, dose: 12.5 mg/kg/injection, schedule: Q01DX009 (ip), vehicle: saline with Tween-80 96 % of control | endpoint: mean survival time, dose: 25.0 mg/kg/injection, schedule: Q01DX009 (ip), vehicle: saline with Tween-80 96 % of control

CCOC(=O)c1ccc(N)c(C(O)(C(F)(F)F)C(F)(F)F)c1
inactive: [1] 103 % of control | [2] 97 % of control | [3] 97 % of control

COC(=O)CC1(C)C(=O)CCC2(C)C1=CCc1ccc(OC)cc12 (stereo unspecified)
inactive: endpoint: mean survival time, dose: 100.0 mg/kg/injection, schedule: Q01DX001 (sc), vehicle: steriod suspending solution 102 % of control | endpoint: mean survival time, dose: 200.0 mg/kg/injection, schedule: Q01DX001 (sc), vehicle: steriod suspending solution 96 % of control | endpoint: mean survival time, dose: 400.0 mg/kg/injection, schedule: Q01DX001 (sc), vehicle: steriod suspending solution 101 % of control

CCCCC(CC)CCC(OC(=O)CSC#N)C(C)CC (stereo unspecified)
inactive: endpoint: mean survival time, dose: 100.0 mg/kg/injection, schedule: Q01DX001 (ip), vehicle: saline 97 % of control | endpoint: mean survival time, dose: 200.0 mg/kg/injection, schedule: Q01DX001 (ip), vehicle: saline 91 % of control | endpoint: mean survival time, dose: 400.0 mg/kg/injection, schedule: Q01DX001 (ip), vehicle: saline 97 % of control

CCCCCCCCCCCCCCCCCC(=O)NN
inactive: [4] 93 % of control | [1] 91 % of control | [5] 104 % of control | [2] 96 % of control | endpoint: mean survival time, dose: 266.0 mg/kg/injection, schedule: Q01DX009 (ip), vehicle: saline with Tween-80 119 % of control | [3] 109 % of control | endpoint: mean survival time, dose: 600.0 mg/kg/injection, schedule: Q01DX009 (ip), vehicle: saline with Tween-80 119 % of control

Oc1cccc2ccccc12
inactive: endpoint: median survival time, dose: 50.0 mg/kg/injection, schedule: Q01DX005 (ip), vehicle: water 95 % of control | endpoint: median survival time, dose: 100.0 mg/kg/injection, schedule: Q01DX005 (ip), vehicle: water 95 % of control | endpoint: median survival time, dose: 200.0 mg/kg/injection, schedule: Q01DX005 (ip), vehicle: water 101 % of control | endpoint: median survival time, dose: 400.0 mg/kg/injection, schedule: Q01DX005 (ip), vehicle: water 93 % of control

CC(=O)NC(C)(C)C
inactive: [1] 98 % of control | [2] 106 % of control | [3] 104 % of control

Nc1cn[nH]c(=O)c1
inactive: endpoint: mean survival time, dose: 100.0 mg/kg/injection, schedule: Q01DX001 (ip), vehicle: carboxymethylcellulose (CMC) 102 % of control | endpoint: mean survival time, dose: 200.0 mg/kg/injection, schedule: Q01DX001 (ip), vehicle: carboxymethylcellulose (CMC) 100 % of control | endpoint: mean survival time, dose: 400.0 mg/kg/injection, schedule: Q01DX001 (ip), vehicle: carboxymethylcellulose (CMC) 92 % of control
